Measurements reported in patent US9107853B2, “Compositions containing phenolic compounds and hydrotropes for cosmetic use” (L'Oreal S.A., priority 2012, dated 2015).

How the values were obtained:
Assay type in all cases: physicochemical
[1] = Solubility in water, with or without hydrotropes, at room temperature
[2] = Stability of solutions (pH, dilution in water)
From the text: (§1) Crystallization or precipitation occurs after mixing the glycol phase and water phase.
The solubility of baicalin can be increased by raising the concentration of hydrotropes.

[3] = Solubility in organic solvent PEG-4
From the text: as §1

## O=C(O)[C@H]1O[C@@H](Oc2cc3oc(-c4ccccc4)cc(=O)c3c(O)c2O)[C@H](O)[C@@H](O)[C@@H]1O [Baicalin]
[1]
  water solubility: < 0.01%
[2]; aqueous
  degradation as a function of pH: degradation happens at pH>5
[2]; hydrotrope solution diluted in water
  stability of solution after dilution in water: still stable if diluted in water
[2]; solution in organic solvent such as PEG-4, diluted in water
  stability of solution after dilution in water: not stable any more
[3]
  amount dissolved by PEG-4: 3%
